Source: PMC12047801, “Disrupting the OTUD4-USP7 deubiquitinase complex to suppress herpesvirus replication: a novel antiviral strategy” (PLOS Pathogens, 2025)

System: KSHV genome replication in BCBL-1 cells
Test: Relative viral genomic copy number (latency) by qPCR in BCBL-1 cells
Type: cell-based
Settings: Fig. S1F, 100 μM, 48 h

Ac-YGRKKRRQRRRGGVNQSASQSSN-NH2 [p8]
Relative viral genomic copy number (replicate 1): 1.16 | Relative viral genomic copy number (replicate 2): 1.11 | Relative viral genomic copy number (replicate 3): 0.96
